# Source: ChEMBL document CHEMBL1201861, “Genomics of Drug Sensitity in Cancer screening data, Wellcome Trust Sanger Institute”
# pIC50: −log10 of the molar value.
# Experiments:
# Assay in all cases: cells
# Assay type in all cases: functional, cell-based, Homo sapiens
# [1] = tested on: MDA-MB-453
# Description: SANGER: Inhibition of human MDA-MB-453 cell growth in a cell viability assay.
# [2] = tested on: OVCAR-3;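 note: growth inhibition of human OVCAR-3 cells, determined by a cell viability assay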
# Description: SANGER: Inhibition of human OVCAR-3 cell growth in a cell viability assay.
# [3] = tested on: SW1710;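 note: growth inhibition of SW1710 cells, determined with a cell viability assay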
# Description: SANGER: Inhibition of human SW1710 cell growth in a cell viability assay.
# [4] = tested on: NCI-H441;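 note: growth inhibition of NCI-H441 cells, read out with a cell viability assay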
# Description: SANGER: Inhibition of human NCI-H441 cell growth in a cell viability assay.
# [5] = tested on: RPMI-7951
# Description: SANGER: Inhibition of human RPMI-7951 cell growth in a cell viability assay.
# [6] = tested on: KYSE-410;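 note: growth inhibition of KYSE-410 cells, measured through a cell viability readout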
# Description: SANGER: Inhibition of human KYSE-410 cell growth in a cell viability assay.
# [7] = tested on: SAS;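 note: growth inhibition of SAS cells, read out with a cell viability assay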
# Description: SANGER: Inhibition of human SAS cell growth in a cell viability assay.
# [8] = tested on: RERF-LC-MS;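 note: growth inhibition of human RERF-LC-MS cells, read out by a cell viability assay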
# Description: SANGER: Inhibition of human RERF-LC-MS cell growth in a cell viability assay.
# [9] = tested on: SW48;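 note: growth inhibition of SW48 cells, read out with a cell viability assay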
# Description: SANGER: Inhibition of human SW48 cell growth in a cell viability assay.
# [10] = tested on: HCC1806;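 note: growth inhibition of the cancer cell line, determined with a cell viability assay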
# Description: SANGER: Inhibition of human HCC1806 cell growth in a cell viability assay.
# [11] = tested on: D-566MG
# [12] = tested on: DOK;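 note: cell viability assay read-out, values reflect inhibition of cell growth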
# Description: SANGER: Inhibition of human DOK cell growth in a cell viability assay.
# [13] = tested on: HO-1-N-1;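 note: growth inhibition of human HO-1-N-1 cells, read out with a cell viability assay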
# Description: SANGER: Inhibition of human HO-1-N-1 cell growth in a cell viability assay.
# [14] = tested on: SW948;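 note: growth inhibition of SW948 cells, read out with a cell viability assay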
# Description: SANGER: Inhibition of human SW948 cell growth in a cell viability assay.
# [15] = tested on: ABC-1;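 note: growth inhibition of human ABC-1 cells, read out by a cell viability assay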
# Description: SANGER: Inhibition of human ABC-1 cell growth in a cell viability assay.
# [16] = tested on: SW1463;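 note: growth inhibition of SW1463 cells, determined with a cell viability assay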
# Description: SANGER: Inhibition of human SW1463 cell growth in a cell viability assay.
# [17] = tested on: SCC-25;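 note: growth inhibition of SCC-25 cells, measured with a cell viability assay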
# Description: SANGER: Inhibition of human SCC-25 cell growth in a cell viability assay.
# [18] = tested on: COR-L23;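 note: cell viability assay measuring how strongly compounds suppress growth of COR-L23 cells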
# Description: SANGER: Inhibition of human COR-L23 cell growth in a cell viability assay.
# [19] = tested on: NCI-H630;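 note: growth inhibition of NCI-H630 cells, read out with a cell viability assay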
# Description: SANGER: Inhibition of human NCI-H630 cell growth in a cell viability assay.
# [20] = tested on: 23132-87
# Description: SANGER: Inhibition of human 23132-87 cell growth in a cell viability assay.
# [21] = tested on: CAMA-1;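 note: growth inhibition of CAMA-1 cells, read out with a cell viability assay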
# Description: SANGER: Inhibition of human CAMA-1 cell growth in a cell viability assay.
# [22] = tested on: BEN; conditions: Homo sapiens, BEN;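 note: growth inhibition of the BEN cell line, read out with a cell viability assay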
# Description: SANGER: Inhibition of human BEN cell growth in a cell viability assay.
# [23] = tested on: HLE;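 note: growth inhibition of human HLE cells, read out by a cell viability assay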
# Description: SANGER: Inhibition of human HLE cell growth in a cell viability assay.
# [24] = tested on: CAL-39;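 note: cell viability assay measuring growth inhibition of CAL-39 cells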
# Description: SANGER: Inhibition of human CAL-39 cell growth in a cell viability assay.
# [25] = tested on: COLO-678
# Description: SANGER: Inhibition of human COLO-678 cell growth in a cell viability assay.
# [26] = tested on: RD
# Description: SANGER: Inhibition of human RD cell growth in a cell viability assay.
# [27] = tested on: M059J;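 note: growth inhibition of M059J cells, read out with a cell viability assay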
# Description: SANGER: Inhibition of human M059J cell growth in a cell viability assay.
# [28] = tested on: CAL-72;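 note: cell viability assay measuring inhibition of proliferation in the CAL-72 cell line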
# Description: SANGER: Inhibition of human CAL-72 cell growth in a cell viability assay.
# [29] = tested on: NUGC-3;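 note: growth inhibition of human NUGC-3 cells, read out with a cell viability assay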
# Description: SANGER: Inhibition of human NUGC-3 cell growth in a cell viability assay.
# [30] = tested on: AU565;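 note: cell viability assay measuring growth inhibition of human AU565 cells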
# Description: SANGER: Inhibition of human AU565 cell growth in a cell viability assay.
# [31] = tested on: GCT;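 note: GCT cell line proliferation inhibition, read out with a cell viability assay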
# Description: SANGER: Inhibition of human GCT cell growth in a cell viability assay.
# [32] = tested on: HuP-T4;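 note: cell viability assay measuring how much HuP-T4 cell growth is inhibited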
# Description: SANGER: Inhibition of human HuP-T4 cell growth in a cell viability assay.
# [33] = tested on: LU-99A;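 note: growth inhibition of LU-99A cells, read out with a cell viability assay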
# Description: SANGER: Inhibition of human LU-99A cell growth in a cell viability assay.
# [34] = tested on: NCI-H2030;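 note: growth inhibition of human NCI-H2030 cells, read out by a cell viability assay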
# Description: SANGER: Inhibition of human NCI-H2030 cell growth in a cell viability assay.
# [35] = tested on: UACC-62;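 note: growth inhibition of human UACC-62 cells, read out by a cell viability assay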
# Description: SANGER: Inhibition of human UACC-62 cell growth in a cell viability assay.
# [36] = tested on: SK-N-AS;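 note: growth inhibition of human SK-N-AS cells, measured with a cell viability assay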
# Description: SANGER: Inhibition of human SK-N-AS cell growth in a cell viability assay.
# [37] = tested on: U-118-MG
# Description: SANGER: Inhibition of human U-118-MG cell growth in a cell viability assay.
# [38] = tested on: NCI-H2405;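 note: growth inhibition of the human cell line, read out with a cell viability assay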
# Description: SANGER: Inhibition of human NCI-H2405 cell growth in a cell viability assay.
compound,measurement,setting,value
CN(C)C(=N)NC(=N)N [METFORMIN],pIC50,"[1]; Homo sapiens, MDA-MB-453",1.89
same,pIC50,"[2]; Homo sapiens, OVCAR-3",1.75
same,pIC50,"[3]; Homo sapiens, SW1710",< 1.70
same,pIC50,"[4]; Homo sapiens, NCI-H441",< 1.70
same,pIC50,"[5]; Homo sapiens, RPMI-7951",2.04
same,pIC50,"[6]; Homo sapiens, KYSE-410",< 1.70
same,pIC50,"[7]; Homo sapiens, SAS",1.95
same,pIC50,"[8]; Homo sapiens, RERF-LC-MS",1.84
same,pIC50,"[9]; Homo sapiens, SW48",< 1.70
same,pIC50,"[10]; Homo sapiens, HCC1806",< 1.70
same,pIC50,"[11]; Homo sapiens, D-566MG",1.97
same,pIC50,"[12]; Homo sapiens, DOK",2.37
same,pIC50,"[13]; Homo sapiens, HO-1-N-1",1.88
same,pIC50,"[14]; Homo sapiens, SW948",< 1.70
same,pIC50,"[15]; Homo sapiens, ABC-1",< 1.70
same,pIC50,"[16]; Homo sapiens, SW1463",< 1.70
same,pIC50,"[17]; Homo sapiens, SCC-25",1.92
same,pIC50,"[18]; Homo sapiens, COR-L23",< 1.70
same,pIC50,"[19]; Homo sapiens, NCI-H630",< 1.70
same,pIC50,[20]; Homo sapiens,1.95
same,pIC50,"[21]; Homo sapiens, CAMA-1",1.96
same,pIC50,[22],1.81
same,pIC50,"[23]; Homo sapiens, HLE",2.01
same,pIC50,"[24]; Homo sapiens, CAL-39",< 1.70
same,pIC50,"[25]; Homo sapiens, COLO-678",< 1.70
same,pIC50,"[26]; Homo sapiens, RD",< 1.70
same,pIC50,"[27]; Homo sapiens, M059J",< 1.70
same,pIC50,"[28]; Homo sapiens, CAL-72",2.20
CCN(CC)CCCCNc1ncc2cc(-c3cc(OC)cc(OC)c3)c(NC(=O)NC(C)(C)C)nc2n1 [PD-173074],pIC50,"[1]; Homo sapiens, MDA-MB-453",< 5.70
same,pIC50,"[2]; Homo sapiens, OVCAR-3",< 5.70
same,pIC50,"[3]; Homo sapiens, SW1710",< 5.70
same,pIC50,"[29]; Homo sapiens, NUGC-3",< 5.70
same,pIC50,"[4]; Homo sapiens, NCI-H441",< 5.70
same,pIC50,"[5]; Homo sapiens, RPMI-7951",< 5.70
same,pIC50,"[30]; Homo sapiens, AU565",< 5.70
same,pIC50,"[6]; Homo sapiens, KYSE-410",< 5.70
same,pIC50,"[31]; Homo sapiens, GCT",< 5.70
same,pIC50,"[7]; Homo sapiens, SAS",< 5.70
same,pIC50,"[8]; Homo sapiens, RERF-LC-MS",< 5.70
same,pIC50,"[9]; Homo sapiens, SW48",< 5.70
same,pIC50,"[10]; Homo sapiens, HCC1806",< 5.70
same,pIC50,"[11]; Homo sapiens, D-566MG",< 5.70
same,pIC50,"[12]; Homo sapiens, DOK",< 5.70
same,pIC50,"[13]; Homo sapiens, HO-1-N-1",< 5.70
same,pIC50,"[14]; Homo sapiens, SW948",< 5.70
same,pIC50,"[15]; Homo sapiens, ABC-1",< 5.70
same,pIC50,"[32]; Homo sapiens, HuP-T4",< 5.70
same,pIC50,"[33]; Homo sapiens, LU-99A",< 5.70
same,pIC50,"[16]; Homo sapiens, SW1463",< 5.70
same,pIC50,"[17]; Homo sapiens, SCC-25",< 5.70
same,pIC50,"[34]; Homo sapiens, NCI-H2030",< 5.70
same,pIC50,"[18]; Homo sapiens, COR-L23",< 5.70
same,pIC50,"[19]; Homo sapiens, NCI-H630",< 5.70
same,pIC50,"[35]; Homo sapiens, UACC-62",< 5.70
same,pIC50,"[21]; Homo sapiens, CAMA-1",< 5.70
same,pIC50,[22],< 5.70
same,pIC50,"[23]; Homo sapiens, HLE",< 5.70
same,pIC50,"[24]; Homo sapiens, CAL-39",< 5.70
same,pIC50,"[36]; Homo sapiens, SK-N-AS",< 5.70
same,pIC50,"[25]; Homo sapiens, COLO-678",< 5.70
same,pIC50,"[26]; Homo sapiens, RD",< 5.70
same,pIC50,"[37]; Homo sapiens, U-118-MG",< 5.70
same,pIC50,"[27]; Homo sapiens, M059J",< 5.70
same,pIC50,"[28]; Homo sapiens, CAL-72",< 5.70
same,pIC50,"[38]; Homo sapiens, NCI-H2405",< 5.70
CISPLATIN,pIC50,[1]; mda-mb-453,4.59
same,pIC50,[2]; ovcar-3,3.16
same,pIC50,[3]; sw1710,4.35
same,pIC50,[29]; nugc-3,5.67
same,pIC50,[4]; nci-h441,3.70
same,pIC50,[5]; rpmi-7951,5.39
same,pIC50,[30]; au565,4.28
same,pIC50,[6]; kyse-410,3.29
same,pIC50,[31]; gct,5.21
same,pIC50,[7]; sas,4.73
same,pIC50,[8]; rerf-lc-ms,3.38
same,pIC50,[9]; sw48,5.04
same,pIC50,[10]; hcc1806,5.14
same,pIC50,[11]; d-566mg,5.46
same,pIC50,[12]; dok,4.90
same,pIC50,[13]; ho-1-n-1,4.40
same,pIC50,[14]; sw948,3.65
same,pIC50,[15]; abc-1,5.44
same,pIC50,[32]; hup-t4,4.43
same,pIC50,[33]; lu-99a,5.37
same,pIC50,[16]; sw1463,3.72
same,pIC50,[17]; scc-25,4.19
same,pIC50,[34]; nci-h2030,4.93
same,pIC50,[18]; cor-l23,5.25
same,pIC50,[19]; nci-h630,3.29
same,pIC50,[20],4.22
same,pIC50,[35]; uacc-62,4.91
same,pIC50,[21]; cama-1,3.93
same,pIC50,[23]; hle,5.22
same,pIC50,[24]; cal-39,3.54
same,pIC50,[36]; sk-n-as,4.42
same,pIC50,[25]; colo-678,3.21
same,pIC50,[26]; rd,4.84
same,pIC50,[37]; u-118-mg,4.77
same,pIC50,[27]; m059j,4.98
same,pIC50,[28]; cal-72,4.63
same,pIC50,[38]; nci-h2405,4.64
